# Reference: ChEMBL document CHEMBL1201862, “PubChem BioAssay data set” (2004)
#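 The compound was tested at five concentrations on cells cultured in 96-well plates, with a 48-hour exposure period. GI50 marks 50% less growth.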 Active and inactive are the calls of the source. Cut-off read from the data, not from the text of the source: active = GI50 up to about 1.1 µM and inactive = higher.
# Key:
# Test in all cases: NCI-60 cell line screen, 48 h
# 786-0 = tested on: 786-0
# Hs-578T = tested on: Hs-578T
# MDA-N = tested on: MDA-N
# HCT-116 = tested on: HCT-116
# DU-145 = tested on: DU-145
# SF-268 = tested on: SF-268
# SR = tested on: SR
# ACHN = tested on: ACHN
# MDA-MB-231 = tested on: MDA-MB-231
# OVCAR-3 = tested on: OVCAR-3
# SN12C = tested on: SN12C
# UACC-257 = tested on: UACC-257
# SK-OV-3 = tested on: SK-OV-3
# OVCAR-8 = tested on: OVCAR-8
# CAKI-1 = tested on: CAKI-1
# SF-539 = tested on: SF-539
# SF-295 = tested on: SF-295
# MDA-MB-435 = tested on: MDA-MB-435
# NCI/ADR-RES = tested on: NCI/ADR-RES
# SNB-19 = tested on: SNB-19
# NCI-H23 = tested on: NCI-H23
# SK-MEL-5 = tested on: SK-MEL-5
# KM12 = tested on: KM12
# UO-31 = tested on: UO-31
# IGROV-1 = tested on: IGROV-1
# A549 = tested on: A549
# OVCAR-4 = tested on: OVCAR-4
# MCF7 = tested on: MCF7
# CCRF-CEM = tested on: CCRF-CEM
# COLO 205 = tested on: COLO 205
# PC-3 = tested on: PC-3
# EKVX = tested on: EKVX
# NCI-H460 = tested on: NCI-H460
# MOLT-4 = tested on: MOLT-4
# M14 = tested on: M14
# BT-549 = tested on: BT-549
# T47D = tested on: T47D
# Malme-3M = tested on: Malme-3M
# HOP-62 = tested on: HOP-62
# HCC 2998 = tested on: HCC 2998
# HCT-15 = tested on: HCT-15
# UACC-62 = tested on: UACC-62
# K562 = tested on: K562
# HT-29 = tested on: HT-29
# A498 = tested on: A498
# RXF 393 = tested on: RXF 393
# OVCAR-5 = tested on: OVCAR-5
# TK-10 = tested on: TK-10
# SK-MEL-2 = tested on: SK-MEL-2
# U-251 = tested on: U-251
# NCI-H522 = tested on: NCI-H522
# SNB-75 = tested on: SNB-75
# NCI-H226 = tested on: NCI-H226
compound,measurement,setting,value
O=[N+]([O-])c1ccc2nc(O)c(/C=C(\O)c3ccccc3)nc2c1,GI50,786-0,4.78 µM (inactive)
same,GI50,Hs-578T,2.23 µM (inactive)
same,GI50,MDA-N,93.5 µM (inactive)
same,GI50,HCT-116,13.7 µM (inactive)
same,GI50,DU-145,> 100 µM (inactive)
same,GI50,SF-268,13.9 µM (inactive)
same,GI50,SR,17.9 µM (inactive)
same,GI50,ACHN,26.4 µM (inactive)
same,GI50,MDA-MB-231,3.57 µM (inactive)
same,GI50,OVCAR-3,27.9 µM (inactive)
same,GI50,SN12C,12.2 µM (inactive)
same,GI50,UACC-257,> 100 µM (inactive)
same,GI50,SK-OV-3,12.3 µM (inactive)
same,GI50,OVCAR-8,11.5 µM (inactive)
same,GI50,CAKI-1,21.4 µM (inactive)
same,GI50,SF-539,15.3 µM (inactive)
same,GI50,SF-295,18.8 µM (inactive)
same,GI50,MDA-MB-435,35.2 µM (inactive)
same,GI50,NCI/ADR-RES,10 µM (inactive)
same,GI50,SNB-19,8.09 µM (inactive)
same,GI50,NCI-H23,17.2 µM (inactive)
same,GI50,SK-MEL-5,98.2 µM (inactive)
same,GI50,KM12,4.81 µM (inactive)
same,GI50,UO-31,48.9 µM (inactive)
same,GI50,IGROV-1,20.6 µM (inactive)
same,GI50,A549,7.64 µM (inactive)
same,GI50,OVCAR-4,2.86 µM (inactive)
same,GI50,MCF7,13.4 µM (inactive)
same,GI50,CCRF-CEM,> 100 µM (inactive)
same,GI50,COLO 205,> 100 µM (inactive)
same,GI50,PC-3,28.8 µM (inactive)
same,GI50,EKVX,49.4 µM (inactive)
same,GI50,NCI-H460,3.83 µM (inactive)
same,GI50,MOLT-4,> 100 µM (inactive)
same,GI50,M14,> 100 µM (inactive)
same,GI50,BT-549,76.7 µM (inactive)
same,GI50,T47D,61.7 µM (inactive)
same,GI50,Malme-3M,55.8 µM (inactive)
same,GI50,HOP-62,5.52 µM (inactive)
same,GI50,HCC 2998,> 100 µM (inactive)
same,GI50,HCT-15,11.5 µM
same,GI50,UACC-62,24.4 µM (inactive)
same,GI50,K562,> 100 µM (inactive)
same,GI50,HT-29,> 100 µM (inactive)
same,GI50,A498,12.5 µM (inactive)
same,GI50,RXF 393,20.6 µM (inactive)
same,GI50,OVCAR-5,> 100 µM (inactive)
same,GI50,TK-10,4.13 µM (inactive)
same,GI50,SK-MEL-2,> 100 µM (inactive)
same,GI50,U-251,5.42 µM (inactive)
same,GI50,NCI-H522,12.5 µM (inactive)
same,GI50,SNB-75,16 µM (inactive)
same,GI50,NCI-H226,17.6 µM (inactive)
